Laboratory results as given in article PMC9977398, “Next-generation membrane-active glycopeptide antibiotics that also inhibit bacterial cell division” (Chemical Science, 2023).

Experiments:
B. subtilis = assay: Cytoplasmic membrane depolarization assay, DiSC3(5); format: cell-based; conditions: exponentially growing B. subtilis, 10 μM
Source text: The membrane disruption properties of both VanQbiph (4) and VanQAmC10 (8) were studied to correlate the extent of membrane perturbation and bactericidal activity against both exponentially growing and non-growing bacterial cells. Their ability to depolarize the membrane was monitored using the fluorescent probe DiSC3(5) (3,3′-dipropylthiadicarbocyanine iodide). DiSC3(5) is sensitive to the membrane potential and as it accumulates in the membrane, the fluorescence intensity decreases due to self-quenching. Upon dissipation of membrane potential, an increase in fluorescence is observed due to DiSC3(5) being dispersed in the solution. […]
were added to it the wells containing bacterial suspension. Fluorescence has monitored at excitation wavelength of 535 nm (slit width: 10 nm) and emission wavelength of 617 nm (slit width: 5 nm). As a measure of inner membrane permeabilization the uptake of PI was monitor by the increase in fluorescence for 30-50 min. […]
Mid log phase MRSA were harvested (3500 rpm, 5 min), washed in 5 mM glucose and 5 mM HEPES buffer (pH 7.2) in 1:1 ratio and resuspended in 5 mM HEPES buffer, 5 mM glucose and 100 mM KCl solution in 1:1:1 ratio. […] The fluorescence was monitored at excitation wavelength of 622 nm and emission wavelength of 670 nm. […] As a measure of membrane depolarization fluorescence was monitor for another 35 min. […]

[1] = system: GFP-FtsI expressing E. coli; assay: GFP-FtsI localization and morphology; format: cell-based; conditions: for localization of GFP-FtsI: vancomycin 34 μM, VanQAmC10 10 and 15 μM
Procedure: FtsI or PBP-3 is the only transpeptidase required for bacterial cell division and localizes to the septal ring.[37] It regulates the degree of cross-linking and coordinates the division process. GFP-tagged FtsI producing E. coli cells were treated with vancomycin (at 34 μM) and VanQAmC10 (at 10 μM and 15 μM; Fig. 5C) and then examined under the microscope. […] Upon treatment with 10 μM of VanQAmC10, larger phenotypes of variable sizes are observed with shape defects. Some cells appear filamentous like in the case of cephalexin. The GFP-FtsI protein appears as green fluorescent spots delocalized across the cell in 60% of the cells visualized. At a higher concentration of 15 μM, bulkier cells with more distorted shapes than those at 10 μM were observed (Fig. S5 ^†). […]
resuspended in prewarmed BMM media. 1:1 BAC light dye was then added to the bacterial suspension and incubated for 5 minutes. The fluorescence in the GFP and Texas red channels was then observed under the microscope. The experiments were performed three times independently and the images are representative of results from three independent experiments.
B. subtilis 1981 GFP-MinD was cultured overnight in BMM.8 Cells were then inoculated in xylose containing BMM instead of glucose to an OD500 of 0.1 to induce expression of the GFP-MinD fusion protein. Upon reaching an OD500 of 0.35, the cells were treated with test compounds at the PEC (vancomycin, VanQAmC10, VanQbiph) and 0.75 μg/mL (nisin) for 15 min. 0.5 μl of nonfixed, non-immobilized samples of the culture were imaged immediately in fluorescent mode (Olympus microscope with a U-LH100HGAPO burner and a U-RFL-T power supply). The experiments were performed three times independently and the images are representative of results from three independent experiments.
GFP-FtsI and GFP-FtsZ localization in E. coli […]
About 6 μl of sample was immobilized on 1% agarose pad . DIC and fluorescence images were obtained at different time intervals using Nikon Eclipse Ti Microscope equipped with Nikon DS-U3 camera through Plan Apo 100×/1.40 oil objective. […]

Row | SMILES | time to membrane depolarisation post-treatment (B. subtilis) | cells with delocalized GFP-FtsI ([1]; 10 μM) | localization of GFP-FtsI [1]
1 | CCCCCCCCCCNC(=O)C[N+](C)(C)CCCNC(=O)C1NC(=O)C2NC(=O)C(NC(=O)C3NC(=O)C(CC(N)=O)NC(=O)C(NC(=O)C(CC(C)C)NC)C(O)c4ccc(c(Cl)c4)Oc4cc3cc(c4OC3OC(CO)C(O)C(O)C3OC3CC(C)(N)C(O)C(C)O3)Oc3ccc(cc3Cl)C2O)c2ccc(O)c(c2)-c2c(O)cc(O)cc21 (centres unmarked) [VanQAmC10 (8)] | ≤ 2 min | 60% | mislocalizes the cell division protein, FtsI
2 | CNC(CC(C)C)C(=O)NC1C(=O)NC(CC(N)=O)C(=O)NC2C(=O)NC3C(=O)NC(C(=O)NC(C(=O)NCCC[N+](C)(C)Cc4ccc(-c5ccccc5)cc4)c4cc(O)cc(O)c4-c4cc3ccc4O)C(O)c3ccc(c(Cl)c3)Oc3cc2cc(c3OC2OC(CO)C(O)C(O)C2OC2CC(C)(N)C(O)C(C)O2)Oc2ccc(cc2Cl)C1O (centres unmarked) [VanQbiph (4)] | ≤ 2 min |  | 
3 | CN[C@H](CC(C)C)C(=O)N[C@H]1C(=O)N[C@@H](CC(N)=O)C(=O)N[C@H]2C(=O)N[C@H]3C(=O)N[C@H](C(=O)N[C@H](C(=O)O)c4cc(O)cc(O)c4-c4cc3ccc4O)[C@H](O)c3ccc(c(Cl)c3)Oc3cc2cc(c3O[C@@H]2O[C@H](CO)[C@@H](O)[C@H](O)[C@H]2O[C@H]2C[C@](C)(N)[C@H](O)[C@H](C)O2)Oc2ccc(cc2Cl)[C@H]1O [Vancomycin, reference compound] |  |  | localization of FtsI at the septum
